Data: ChEMBL document CHEMBL5303761, “Data for DCP probe BI-3231” (2023)

Assays:
[1] = target: T1, Muscarinic acetylcholine receptor M2 (Homo sapiens) (UniProt P08172); assay: M2/H Eurofins SafetyScreen44 (BI); details: filed as antagonist, Compound concentration 10.0 uM
T1 sequence (whole entry): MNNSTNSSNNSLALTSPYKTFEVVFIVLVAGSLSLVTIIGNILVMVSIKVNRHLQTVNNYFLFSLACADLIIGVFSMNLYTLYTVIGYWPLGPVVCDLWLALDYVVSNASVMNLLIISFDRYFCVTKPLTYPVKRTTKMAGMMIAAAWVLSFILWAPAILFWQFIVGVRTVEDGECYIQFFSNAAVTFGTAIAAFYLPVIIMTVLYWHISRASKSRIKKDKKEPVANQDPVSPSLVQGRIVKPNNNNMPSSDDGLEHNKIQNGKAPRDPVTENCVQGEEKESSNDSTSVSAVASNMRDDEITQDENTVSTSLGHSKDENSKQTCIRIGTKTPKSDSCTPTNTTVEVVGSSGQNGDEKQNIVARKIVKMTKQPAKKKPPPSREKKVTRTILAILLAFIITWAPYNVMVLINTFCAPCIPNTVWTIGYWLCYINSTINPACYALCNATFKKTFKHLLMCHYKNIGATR

[2] = target: D(1B) dopamine receptor (Homo sapiens) (UniProt P21918); details: Compound concentration 10.0 uM
Sequence of D(1B) dopamine receptor (Homo sapiens) (P21918 whole entry): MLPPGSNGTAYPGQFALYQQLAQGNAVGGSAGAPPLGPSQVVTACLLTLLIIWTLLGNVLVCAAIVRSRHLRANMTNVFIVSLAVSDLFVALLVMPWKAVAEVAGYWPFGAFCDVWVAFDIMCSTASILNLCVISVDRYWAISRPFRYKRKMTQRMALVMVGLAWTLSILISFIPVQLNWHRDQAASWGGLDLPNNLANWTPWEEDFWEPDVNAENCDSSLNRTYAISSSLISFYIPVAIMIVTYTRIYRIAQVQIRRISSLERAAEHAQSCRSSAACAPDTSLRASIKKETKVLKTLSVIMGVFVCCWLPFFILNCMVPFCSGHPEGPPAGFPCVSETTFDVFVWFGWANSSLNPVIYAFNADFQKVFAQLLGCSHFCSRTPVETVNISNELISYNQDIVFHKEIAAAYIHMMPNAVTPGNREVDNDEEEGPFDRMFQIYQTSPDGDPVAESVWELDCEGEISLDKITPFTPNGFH

[3] = target: T2, 5-hydroxytryptamine receptor 1A (Homo sapiens) (UniProt P08908); assay: 5HT1A/H Eurofins SafetyScreen44 (BI); details: Compound concentration 10.0 uM
T2 sequence (whole entry): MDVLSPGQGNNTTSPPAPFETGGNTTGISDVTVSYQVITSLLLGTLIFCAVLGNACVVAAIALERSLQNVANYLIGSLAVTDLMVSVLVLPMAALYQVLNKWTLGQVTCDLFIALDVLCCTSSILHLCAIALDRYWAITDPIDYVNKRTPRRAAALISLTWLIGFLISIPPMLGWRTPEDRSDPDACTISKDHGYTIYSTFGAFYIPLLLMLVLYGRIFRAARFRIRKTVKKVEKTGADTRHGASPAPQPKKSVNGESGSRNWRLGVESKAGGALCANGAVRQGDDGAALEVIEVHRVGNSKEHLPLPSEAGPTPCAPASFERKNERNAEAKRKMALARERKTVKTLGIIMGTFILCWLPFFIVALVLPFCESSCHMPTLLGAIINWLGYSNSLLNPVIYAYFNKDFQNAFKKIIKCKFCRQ

[4] = target: Sodium-dependent noradrenaline transporter (Homo sapiens) (UniProt P23975); details: Compound concentration 10.0 uM
Sequence of Sodium-dependent noradrenaline transporter (Homo sapiens) (P23975 whole entry): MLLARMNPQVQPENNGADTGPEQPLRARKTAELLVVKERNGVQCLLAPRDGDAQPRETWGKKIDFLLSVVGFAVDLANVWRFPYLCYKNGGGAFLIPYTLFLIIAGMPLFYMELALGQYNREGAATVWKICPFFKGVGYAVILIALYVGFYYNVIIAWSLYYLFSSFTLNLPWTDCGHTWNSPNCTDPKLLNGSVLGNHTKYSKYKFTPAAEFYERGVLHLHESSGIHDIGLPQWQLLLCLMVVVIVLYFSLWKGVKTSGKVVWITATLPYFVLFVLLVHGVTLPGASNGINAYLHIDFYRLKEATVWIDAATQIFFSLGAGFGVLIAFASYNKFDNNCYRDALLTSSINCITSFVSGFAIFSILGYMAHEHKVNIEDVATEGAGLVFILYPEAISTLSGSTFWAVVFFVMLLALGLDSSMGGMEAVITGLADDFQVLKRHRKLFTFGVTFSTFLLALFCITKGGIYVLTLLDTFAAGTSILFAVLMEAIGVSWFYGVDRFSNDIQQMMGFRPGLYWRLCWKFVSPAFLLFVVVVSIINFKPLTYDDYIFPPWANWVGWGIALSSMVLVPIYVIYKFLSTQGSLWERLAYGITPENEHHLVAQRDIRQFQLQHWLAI

[5] = target: Prostaglandin G/H synthase 2 (Homo sapiens) (UniProt P35354); assay: COX-2 Eurofins SafetyScreen44 (BI); details: Compound concentration 10.0 uM
[6] = target: GABA-A receptor; anion channel (Rattus norvegicus) (UniProt O09028+P15431+P18506+P18508+P19969+P20236+P23574+P23576+P28471+P28473+P30191+P62813+P63079+P63138+Q91ZM7+Q9ES14); details: Compound concentration 10.0 uM
[7] = target: Alpha-1B adrenergic receptor (Homo sapiens) (UniProt P35368); details: Compound concentration 10.0 uM
Sequence of Alpha-1B adrenergic receptor (Homo sapiens) (P35368 whole entry): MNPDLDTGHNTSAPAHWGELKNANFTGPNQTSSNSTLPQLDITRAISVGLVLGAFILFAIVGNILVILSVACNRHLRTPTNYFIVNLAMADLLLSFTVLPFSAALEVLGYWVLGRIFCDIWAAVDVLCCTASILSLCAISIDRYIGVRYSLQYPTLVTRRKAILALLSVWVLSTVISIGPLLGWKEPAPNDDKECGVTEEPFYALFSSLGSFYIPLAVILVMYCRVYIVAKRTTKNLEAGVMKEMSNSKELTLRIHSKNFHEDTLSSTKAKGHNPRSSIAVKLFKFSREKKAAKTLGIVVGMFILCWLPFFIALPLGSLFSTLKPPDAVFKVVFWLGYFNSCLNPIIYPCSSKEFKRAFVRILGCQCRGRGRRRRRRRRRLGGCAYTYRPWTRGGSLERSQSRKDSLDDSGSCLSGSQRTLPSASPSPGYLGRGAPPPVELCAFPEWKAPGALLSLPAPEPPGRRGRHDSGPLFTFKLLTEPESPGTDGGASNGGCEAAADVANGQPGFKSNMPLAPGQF

[8] = target: Prostaglandin G/H synthase 1 (Homo sapiens) (UniProt P23219); assay: COX-1 Eurofins SafetyScreen44 (BI); details: Compound concentration 10.0 uM
[9] = target: Histamine H4 receptor (Homo sapiens) (UniProt Q9H3N8); details: Compound concentration 10.0 uM
Sequence of Histamine H4 receptor (Homo sapiens) (Q9H3N8 whole entry): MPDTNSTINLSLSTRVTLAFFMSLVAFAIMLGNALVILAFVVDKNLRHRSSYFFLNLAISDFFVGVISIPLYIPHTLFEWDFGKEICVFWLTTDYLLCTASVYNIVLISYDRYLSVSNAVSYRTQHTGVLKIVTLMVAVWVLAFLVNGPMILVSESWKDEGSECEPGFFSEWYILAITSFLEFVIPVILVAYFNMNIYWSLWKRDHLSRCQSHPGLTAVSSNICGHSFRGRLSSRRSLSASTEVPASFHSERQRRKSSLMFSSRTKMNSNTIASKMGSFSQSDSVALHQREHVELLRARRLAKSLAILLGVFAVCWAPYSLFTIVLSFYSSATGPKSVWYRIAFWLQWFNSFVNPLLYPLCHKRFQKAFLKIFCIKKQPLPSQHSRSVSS

[10] = target: Muscarinic acetylcholine receptor M3 (Homo sapiens) (UniProt P20309); details: Compound concentration 10.0 uM
Sequence of Muscarinic acetylcholine receptor M3 (Homo sapiens) (P20309 whole entry, looked up): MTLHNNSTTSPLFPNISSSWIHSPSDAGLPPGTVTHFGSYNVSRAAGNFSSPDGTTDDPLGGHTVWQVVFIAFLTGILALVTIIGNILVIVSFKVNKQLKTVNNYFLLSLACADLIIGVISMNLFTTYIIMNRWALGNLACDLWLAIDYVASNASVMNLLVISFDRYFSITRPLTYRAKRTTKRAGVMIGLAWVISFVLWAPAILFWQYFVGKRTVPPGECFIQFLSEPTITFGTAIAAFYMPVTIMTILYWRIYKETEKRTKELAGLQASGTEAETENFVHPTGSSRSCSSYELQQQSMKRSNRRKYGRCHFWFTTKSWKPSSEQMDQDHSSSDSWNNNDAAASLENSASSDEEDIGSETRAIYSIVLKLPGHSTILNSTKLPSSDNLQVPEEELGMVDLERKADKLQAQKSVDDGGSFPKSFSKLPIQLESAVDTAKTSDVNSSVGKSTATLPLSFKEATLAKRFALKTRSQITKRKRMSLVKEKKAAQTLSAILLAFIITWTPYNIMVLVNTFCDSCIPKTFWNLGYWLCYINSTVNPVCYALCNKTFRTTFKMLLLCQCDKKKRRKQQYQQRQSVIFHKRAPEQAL

[11] = target: T3, Alpha-1A adrenergic receptor (Homo sapiens) (UniProt P35348); details: Compound concentration 10.0 uM
T3 sequence (whole entry): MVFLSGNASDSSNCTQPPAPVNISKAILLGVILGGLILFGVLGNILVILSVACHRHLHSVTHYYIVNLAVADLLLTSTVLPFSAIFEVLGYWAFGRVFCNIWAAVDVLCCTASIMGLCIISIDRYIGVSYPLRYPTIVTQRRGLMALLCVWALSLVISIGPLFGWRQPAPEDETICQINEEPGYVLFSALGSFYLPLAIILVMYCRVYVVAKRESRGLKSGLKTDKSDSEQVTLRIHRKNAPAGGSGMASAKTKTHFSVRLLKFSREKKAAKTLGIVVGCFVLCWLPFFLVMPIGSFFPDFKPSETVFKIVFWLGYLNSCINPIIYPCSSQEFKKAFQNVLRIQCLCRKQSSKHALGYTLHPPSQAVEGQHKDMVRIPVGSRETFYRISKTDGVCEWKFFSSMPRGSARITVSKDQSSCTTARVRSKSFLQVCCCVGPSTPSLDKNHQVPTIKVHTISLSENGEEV

[12] = target: D(2) dopamine receptor (Homo sapiens) (UniProt P14416); assay: D2SH_AGON Eurofins SafetyScreen44 (BI); details: filed as agonist, Compound concentration 10.0 uM
[13] = target: D(1A) dopamine receptor (Homo sapiens) (UniProt P21728); assay: D1/H Eurofins SafetyScreen44 (BI); details: filed as antagonist, Compound concentration 10.0 uM
[14] = target: T1, Muscarinic acetylcholine receptor M2 (Homo sapiens); details: Compound concentration 10.0 uM
[15] = target: Mu-type opioid receptor (Homo sapiens) (UniProt P35372); assay: MU/H Eurofins SafetyScreen44 (BI); details: Compound concentration 10.0 uM
[16] = target: Beta-2 adrenergic receptor (Homo sapiens) (UniProt P07550); assay: BETA2/HUM Eurofins SafetyScreen44 (BI); details: filed as antagonist, Compound concentration 10.0 uM
[17] = target: Glutamate NMDA receptor (Rattus norvegicus) (UniProt P35439+Q00959+Q00960+Q00961+Q62645+Q8VHN2+Q9R1M7); assay: NMDA/R Eurofins SafetyScreen44 (BI); format: protein-complex assay; details: Compound concentration 10.0 uM
[18] = target: 5-hydroxytryptamine receptor 2A (Homo sapiens) (UniProt P28223); assay: 5HT2AH_AGON Eurofins SafetyScreen44 (BI); details: filed as agonist, Compound concentration 10.0 uM
[19] = target: Adenosine receptor A2a (Homo sapiens) (UniProt P29274); assay: A2A/H Eurofins SafetyScreen44 (BI); details: filed as antagonist, Compound concentration 10.0 uM
Sequence of Adenosine receptor A2a (Homo sapiens) (P29274 whole entry): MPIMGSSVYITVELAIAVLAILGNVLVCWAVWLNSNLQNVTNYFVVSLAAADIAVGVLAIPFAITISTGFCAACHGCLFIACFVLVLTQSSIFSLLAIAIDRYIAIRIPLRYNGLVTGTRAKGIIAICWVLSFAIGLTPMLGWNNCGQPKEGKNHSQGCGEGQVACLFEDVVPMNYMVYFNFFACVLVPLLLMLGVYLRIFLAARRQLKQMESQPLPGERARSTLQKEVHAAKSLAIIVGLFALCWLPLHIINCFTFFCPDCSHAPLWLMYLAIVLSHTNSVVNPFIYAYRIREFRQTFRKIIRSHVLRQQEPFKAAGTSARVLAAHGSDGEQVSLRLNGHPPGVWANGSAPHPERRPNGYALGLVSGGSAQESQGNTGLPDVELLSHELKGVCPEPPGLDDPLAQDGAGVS

[20] = target: Sodium-dependent dopamine transporter (Homo sapiens) (UniProt Q01959); details: Compound concentration 10.0 uM
Sequence of Sodium-dependent dopamine transporter (Homo sapiens) (Q01959 whole entry): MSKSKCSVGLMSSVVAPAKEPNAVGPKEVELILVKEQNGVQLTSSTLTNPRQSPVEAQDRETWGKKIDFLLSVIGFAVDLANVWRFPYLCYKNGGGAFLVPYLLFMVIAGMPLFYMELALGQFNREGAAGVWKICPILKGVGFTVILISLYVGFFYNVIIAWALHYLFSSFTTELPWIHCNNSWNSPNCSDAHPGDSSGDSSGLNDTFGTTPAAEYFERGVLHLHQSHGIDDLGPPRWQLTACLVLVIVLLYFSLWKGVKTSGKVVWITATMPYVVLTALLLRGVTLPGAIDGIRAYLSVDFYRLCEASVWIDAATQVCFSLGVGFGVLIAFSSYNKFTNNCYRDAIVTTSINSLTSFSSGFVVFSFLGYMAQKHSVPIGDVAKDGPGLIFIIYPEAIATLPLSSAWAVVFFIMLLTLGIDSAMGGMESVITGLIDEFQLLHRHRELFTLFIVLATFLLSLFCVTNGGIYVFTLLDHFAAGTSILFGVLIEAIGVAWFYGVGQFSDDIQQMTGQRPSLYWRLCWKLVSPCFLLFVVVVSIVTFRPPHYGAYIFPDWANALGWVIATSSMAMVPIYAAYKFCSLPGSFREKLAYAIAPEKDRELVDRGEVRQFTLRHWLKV

[21] = target: Histamine H1 receptor (Homo sapiens) (UniProt P35367); assay: H1/PYRIL/HS Eurofins SafetyScreen44 (BI); details: Compound concentration 10.0 uM
Sequence of Histamine H1 receptor (Homo sapiens) (P35367 whole entry): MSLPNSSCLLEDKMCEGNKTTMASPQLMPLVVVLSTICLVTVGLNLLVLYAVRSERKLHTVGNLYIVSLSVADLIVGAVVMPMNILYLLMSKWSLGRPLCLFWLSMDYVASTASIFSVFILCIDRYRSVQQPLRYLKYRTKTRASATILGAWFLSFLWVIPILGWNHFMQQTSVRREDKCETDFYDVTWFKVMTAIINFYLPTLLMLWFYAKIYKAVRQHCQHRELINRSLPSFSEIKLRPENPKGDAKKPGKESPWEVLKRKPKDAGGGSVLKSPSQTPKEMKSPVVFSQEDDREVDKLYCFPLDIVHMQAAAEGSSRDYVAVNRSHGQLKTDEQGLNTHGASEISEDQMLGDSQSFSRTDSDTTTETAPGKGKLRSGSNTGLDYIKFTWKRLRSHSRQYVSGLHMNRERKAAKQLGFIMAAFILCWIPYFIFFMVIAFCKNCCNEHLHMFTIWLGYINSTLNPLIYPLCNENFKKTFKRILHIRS

[22] = target: 5-hydroxytryptamine receptor 1B (Homo sapiens) (UniProt P28222); details: Compound concentration 10.0 uM
Sequence of 5-hydroxytryptamine receptor 1B (Homo sapiens) (P28222 whole entry): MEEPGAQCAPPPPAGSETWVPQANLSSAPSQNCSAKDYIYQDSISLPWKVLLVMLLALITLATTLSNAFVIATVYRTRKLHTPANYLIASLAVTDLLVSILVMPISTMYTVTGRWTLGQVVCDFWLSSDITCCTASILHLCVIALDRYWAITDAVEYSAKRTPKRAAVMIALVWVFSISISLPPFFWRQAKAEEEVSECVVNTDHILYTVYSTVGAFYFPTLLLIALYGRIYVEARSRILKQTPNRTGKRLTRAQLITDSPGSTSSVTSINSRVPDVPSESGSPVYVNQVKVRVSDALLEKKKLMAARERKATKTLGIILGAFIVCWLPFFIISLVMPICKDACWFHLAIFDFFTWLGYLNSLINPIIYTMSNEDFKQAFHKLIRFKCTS

[23] = target: D(4) dopamine receptor (Homo sapiens) (UniProt P21917); details: Compound concentration 10.0 uM
Sequence of D(4) dopamine receptor (Homo sapiens) (P21917 whole entry): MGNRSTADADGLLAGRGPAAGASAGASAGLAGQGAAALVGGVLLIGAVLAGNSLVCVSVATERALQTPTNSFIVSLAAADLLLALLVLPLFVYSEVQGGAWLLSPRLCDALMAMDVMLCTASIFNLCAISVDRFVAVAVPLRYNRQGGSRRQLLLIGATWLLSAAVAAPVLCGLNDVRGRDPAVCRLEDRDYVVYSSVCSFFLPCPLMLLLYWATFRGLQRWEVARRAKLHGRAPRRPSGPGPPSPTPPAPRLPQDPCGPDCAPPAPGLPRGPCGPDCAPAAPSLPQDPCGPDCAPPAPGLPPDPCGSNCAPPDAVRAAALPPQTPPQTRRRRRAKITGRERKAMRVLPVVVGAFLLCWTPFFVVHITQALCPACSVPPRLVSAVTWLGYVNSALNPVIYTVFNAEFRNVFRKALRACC

[24] = target: 5-hydroxytryptamine receptor 1B (Homo sapiens) (UniProt P28222); assay: 5HT1B(H) Eurofins SafetyScreen44 (BI); details: filed as antagonist, Compound concentration 10.0 uM
Rattus norvegicus = species on record: Rattus norvegicus; details: Compound concentration 10.0 uM
[25] = target: Histamine H1 receptor (Homo sapiens) (UniProt P35367); details: Compound concentration 10.0 uM

SMILES	residual activity [1] [%]	inhibition [2] [%]	residual activity [3] [%]	inhibition [4] [%]	residual activity [5] [%]	inhibition [6] [%]	inhibition [7] [%]	residual activity [8] [%]	inhibition [9] [%]	inhibition [10] [%]	inhibition [11] [%]	residual activity [12] [%]	residual activity [13] [%]	inhibition [14] [%]	residual activity [15] [%]	residual activity [16] [%]	residual activity [17] [%]	residual activity [18] [%]	residual activity [19] [%]	inhibition [20] [%]	further results
CCn1c(=O)c(C)cn(Cc2nnc(-c3ccc(F)c(O)c3F)s2)c1=O	106	8.17	101	3.4	49	27.6	-10	76	3.99	-3.96	-6.48	84	105	-5.24	87	99	104	84	103	24.9	residual activity [21]: 84%; inhibition [22]: 16%; inhibition [23]: 9.62%; residual activity [24]: 93%; inhibition (Rattus norvegicus): 23%; inhibition [25]: 8.66%
CCn1c(=O)c(C)cn(Cc2nnc(-c3ccc(F)c(OC)c3F)s2)c1=O	113	-6.46	94	3.37	44	19.9	-0.13	88	-9.96	-1.37	-8.57	92	97	-0.14	102	105	103	101	81	12.4	residual activity [21]: 100%; inhibition [22]: 8.52%; inhibition [23]: 2.36%; residual activity [24]: 103%; inhibition (Rattus norvegicus): -8.73%; inhibition [25]: -3.42%
